Measurements as given in the supplement of paper PMC11061612.

Columns and labels:
[1] = tested on: NCI-H28 (Mesothelioma); experiment: combination Emax (second highest fraction inhibited in the dose matrix, 72 h); higher = more inhibition; extreme values may be limits of the assay
In short: (§1)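 After 24 hours at 37°C and 5% CO2 in 1536-well plates, cells in DMEM/F12 or RPMI plus 10% FBS received two-drug dose matrices for 72 hours. Viability came from CellTiter-Glo 2.0 luminescence and was scaled as inhibition, anchored at 0 by vehicle wells and at 1 by blank wells. Combination Emax is taken as the second-highest inhibition in the matrix, and Bliss excess as the observed combination effect less EA + EB − EA·EB, with EA and EB the single-agent effects.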

[2] = tested on: 639-V (Bladder Carcinoma); experiment: as above
In short: as §1

[3] = tested on: SK-OV-3 (Ovarian Carcinoma); experiment: as above
In short: as §1

[4] = tested on: SIMA (Neuroblastoma); experiment: as above
In short: as §1

[5] = tested on: RT-112 (Bladder Carcinoma); experiment: as above
In short: as §1

[6] = tested on: SW626 (Colorectal Carcinoma); experiment: as above
In short: as §1

[7] = tested on: Hs-633T (Other Solid Carcinomas); experiment: as above
In short: as §1

[8] = tested on: LU-139 (Small Cell Lung Carcinoma); experiment: as above
In short: as §1

[9] = tested on: HCC-15 (Squamous Cell Lung Carcinoma); experiment: as above
In short: as §1

[10] = tested on: RH-18 (Rhabdomyosarcoma); experiment: as above
In short: as §1

[11] = tested on: SIMA (Neuroblastoma); experiment: Bliss excess, mean over the matrix (fraction); higher = more synergy
In short: as §1

[12] = tested on: RH-18 (Rhabdomyosarcoma); experiment: as above
In short: as §1
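Throughout, for Bliss excess, mean over the matrix: after 72 h of two-drug dosing.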

Row | Structure (SMILES) | combination Emax [1] | combination Emax [2] | combination Emax [3] | combination Emax [4] | combination Emax [5] | combination Emax [6] | combination Emax [7] | combination Emax [8] | combination Emax [9] | combination Emax [10] | Bliss excess [11] | Bliss excess [12]
1 | Cc1cc2ncnn2cc1Nc1ncc2c(n1)n(C1CCOCC1)c(=O)n2C [AZD7648] + CN(C)CCCOc1ccc(-c2ccc3ncc4c(c3c2)n(C2CCOCC2)c(=O)n4C)cn1 [AZD0156] (first compound max 10 µM, 7x7, partner max 1 µM) | 0.307 | 0.239 | 0.403 | 0.312 | 0.317 | 0.284 | 0.37 | 0.228 | 0.227 | 0.333 | 0.0504 | -0.0092
2 | CCN(CCO)CCCOc1ccc2c(Nc3cc(CC(=O)Nc4cccc(F)c4)[nH]n3)ncnc2c1 [AZD2811] + C[C@@H]1COCCN1C2=NC(=NC(=C2)C3(CC3)[S@](=N)(=O)C)C4=C5C=CNC5=NC=C4 [AZD6738] (first compound max 1 µM, 7x7, partner max 10 µM) | 0.533 | 0.339 | 0.547 | 0.766 | 0.824 | 0.581 | 0.885 | 0.299 | 0.824 | 0.344 | -0.0332 | -0.0336
3 | Cc1cc2ncnn2cc1Nc1ncc2c(n1)n(C1CCOCC1)c(=O)n2C [AZD7648] + CCN(CCO)CCCOc1ccc2c(Nc3cc(CC(=O)Nc4cccc(F)c4)[nH]n3)ncnc2c1 [AZD2811] (first compound max 10 µM, 7x7, partner max 1 µM) | 0.345 | 0.278 | 0.367 | 0.532 | 0.49 | 0.25 | 0.431 | 0.397 | 0.703 | 0.333 | 0.0728 | 0.0148
4 | CCc1c2c(nc3ccc(O)cc13)-c1cc3c(c(=O)n1C2)COC(=O)[C@]3(O)CC [SN-38] + CN(C)CCCOc1ccc(-c2ccc3ncc4c(c3c2)n(C2CCOCC2)c(=O)n4C)cn1 [AZD0156] (first compound max 0.3 µM, 7x7, partner max 1 µM) | 0.307 | 1 | 0.517 | 0.907 | 0.797 | 0.428 | 0.838 | 0.627 | 0.879 | 0.459 | -0.0753 | -0.0477
5 | C[C@@H]1COCCN1c1cc(C2([S@](C)(=N)=O)CC2)nc(-c2ccnc3[nH]ccc23)n1 [AZD6738] + O=C(c1cc(Cc2n[nH]c(=O)c3ccccc23)ccc1F)N1CCN(C(=O)C2CC2)CC1 [Olaparib] (first compound max 10 µM, 7x7, partner max 10 µM) | 0.408 | 0.787 | 0.6 | 0.642 | 0.614 | 0.455 | 0.821 | 0.418 | 0.258 | 0.406 | -0.0498 | 0.012
6 | COc1cccc2c1C(=O)c1c(O)c3c(c(O)c1C2=O)C[C@@](O)(C(=O)CO)C[C@@H]3O[C@H]1C[C@H](N)[C@H](O)[C@H](C)O1 [Doxorubicin] + Cc1cc2ncnn2cc1Nc1ncc2c(n1)n(C1CCOCC1)c(=O)n2C [AZD7648] (first compound max 1 µM, 7x7, partner max 10 µM) | 0.605 | 0.98 | 0.638 | 0.854 | 0.9 | 0.419 | 0.932 | 0.905 | 0.284 | 0.76 | 0.0859 | 0.0463
7 | COc1cccc(OCCCN)c1-c1cc(Nc2cnc(C#N)cn2)n[nH]1 [Prexasertib] + CN(C)CCCOc1ccc(-c2ccc3ncc4c(c3c2)n(C2CCOCC2)c(=O)n4C)cn1 [AZD0156] (first compound max 1 µM, 7x7, partner max 1 µM) | 0.626 | 0.446 | 0.853 | 1 | 0.975 | 0.707 | 0.908 | 0.505 | 0.187 | 0.426 | 0.0111 | -0.0006
8 | COc1cccc(OCCCN)c1-c1cc(Nc2cnc(C#N)cn2)n[nH]1 [Prexasertib] + Cc1cc2ncnn2cc1Nc1ncc2c(n1)n(C1CCOCC1)c(=O)n2C [AZD7648] (first compound max 1 µM, 7x7, partner max 10 µM) | 0.639 | 0.362 | 0.842 | 0.992 | 0.95 | 0.75 | 0.948 | 0.504 | 0.333 | 0.382 | -0.035 | 0.0455
9 | CCN(CCO)CCCOc1ccc2c(Nc3cc(CC(=O)Nc4cccc(F)c4)[nH]n3)ncnc2c1 [AZD2811] + O=C(c1cc(Cc2n[nH]c(=O)c3ccccc23)ccc1F)N1CCN(C(=O)C2CC2)CC1 [Olaparib] (first compound max 1 µM, 7x7, partner max 10 µM) | 0.229 | 0.237 | 0.226 | 0.213 | 0.424 | 0.213 | 0.441 | 0.307 | 0.755 | 0.257 | 0.0206 | 0.0097
10 | C=CCn1c(=O)c2cnc(Nc3ccc(N4CCN(C)CC4)cc3)nc2n1-c1cccc(C(C)(C)O)n1 [AZD1775] + O=C(c1cc(Cc2n[nH]c(=O)c3ccccc23)ccc1F)N1CCN(C(=O)C2CC2)CC1 [Olaparib] (first compound max 1 µM, partner max 10 µM) | 0.421 | 0.333 | 0.547 | 0.721 | 0.705 | 0.573 | 0.657 | 0.636 | 0.31 | 0.401 | 0.0028 | -0.0018
11 | COc1cccc(OCCCN)c1-c1cc(Nc2cnc(C#N)cn2)n[nH]1 [Prexasertib] + C=CCn1c(=O)c2cnc(Nc3ccc(N4CCN(C)CC4)cc3)nc2n1-c1cccc(C(C)(C)O)n1 [AZD1775] (first compound max 1 µM, partner max 1 µM) | 0.659 | 0.805 | 0.875 | 0.993 | 1 | 0.695 | 0.973 | 0.741 | 0.542 | 0.492 | 0.0181 | 0.154
12 | Cc1cc2ncnn2cc1Nc1ncc2c(n1)n(C1CCOCC1)c(=O)n2C [AZD7648] + C=CCn1c(=O)c2cnc(Nc3ccc(N4CCN(C)CC4)cc3)nc2n1-c1cccc(C(C)(C)O)n1 [AZD1775] (first compound max 10 µM, partner max 1 µM) | 0.42 | 0.425 | 0.535 | 0.941 | 0.742 | 0.513 | 0.748 | 0.615 | 0.345 | 0.426 | 0.0406 | 0.0278
13 | CN(C)CCCOc1ccc(-c2ccc3ncc4c(c3c2)n(C2CCOCC2)c(=O)n4C)cn1 [AZD0156] + C[C@@H]1COCCN1C2=NC(=NC(=C2)C3(CC3)[S@](=N)(=O)C)C4=C5C=CNC5=NC=C4 [AZD6738] (first compound max 1 µM, 7x7, partner max 10 µM) | 0.452 | 0.35 | 0.617 | 0.9 | 0.919 | 0.566 | 0.925 | 0.278 | 0.146 | 0.343 | 0.074 | -0.0312
14 | CN(C)CCCOc1ccc(-c2ccc3ncc4c(c3c2)n(C2CCOCC2)c(=O)n4C)cn1 [AZD0156] + C=CCn1c(=O)c2cnc(Nc3ccc(N4CCN(C)CC4)cc3)nc2n1-c1cccc(C(C)(C)O)n1 [AZD1775] (first compound max 1 µM, partner max 1 µM) | 0.434 | 0.204 | 0.54 | 0.873 | 0.514 | 0.508 | 0.769 | 0.59 | 0.299 | 0.337 | -0.006 | -0.0645
15 | COc1cccc(OCCCN)c1-c1cc(Nc2cnc(C#N)cn2)n[nH]1 [Prexasertib] + O=C(c1cc(Cc2n[nH]c(=O)c3ccccc23)ccc1F)N1CCN(C(=O)C2CC2)CC1 [Olaparib] (first compound max 1 µM, 7x7, partner max 10 µM) | 0.597 | 0.868 | 0.713 | 0.97 | 0.797 | 0.64 | 0.854 | 0.442 | 0.284 | 0.327 | -0.0728 | -0.0295
16 | Cc1cc2ncnn2cc1Nc1ncc2c(n1)n(C1CCOCC1)c(=O)n2C [AZD7648] + C[C@@H]1COCCN1C2=NC(=NC(=C2)C3(CC3)[S@](=N)(=O)C)C4=C5C=CNC5=NC=C4 [AZD6738] (first compound max 10 µM, 7x7, partner max 10 µM) | 0.538 | 0.404 | 0.638 | 0.904 | 0.93 | 0.619 | 0.855 | 0.396 | 0.181 | 0.365 | 0.0326 | 0.0727
17 | COc1cccc(OCCCN)c1-c1cc(Nc2cnc(C#N)cn2)n[nH]1 [Prexasertib] + CCc1c2c(nc3ccc(O)cc13)-c1cc3c(c(=O)n1C2)COC(=O)[C@]3(O)CC [SN-38] (first compound max 1 µM, 7x7, partner max 0.3 µM) | 0.616 | 1 | 0.853 |  | 1 | 0.819 | 0.814 | 0.899 | 0.857 | 0.689 |  | -0.0464
18 | Cc1cc2ncnn2cc1Nc1ncc2c(n1)n(C1CCOCC1)c(=O)n2C [AZD7648] + O=C(c1cc(Cc2n[nH]c(=O)c3ccccc23)ccc1F)N1CCN(C(=O)C2CC2)CC1 [Olaparib] (first compound max 10 µM, 7x7, partner max 10 µM) | 0.131 | 0.182 | 0.173 | 0.192 | 0.143 | 0.13 | 0.313 | 0.131 | 0.129 | 0.182 | -0.02 | -0.0417
19 | CCc1c2c(nc3ccc(O)cc13)-c1cc3c(c(=O)n1C2)COC(=O)[C@]3(O)CC [SN-38] + O=C(c1cc(Cc2n[nH]c(=O)c3ccccc23)ccc1F)N1CCN(C(=O)C2CC2)CC1 [Olaparib] (first compound max 0.3 µM, 7x7, partner max 10 µM) | 0.429 | 1 | 0.535 |  | 0.762 | 0.559 | 0.842 | 0.767 |  | 0.76 |  | 0.0899
